Read-outs that look alike come from different tables or passages of the source. Marks after values point to notes of the source that are not given here.

The test system of series [1] is SARS-CoV-2. The series is classed as cell-based.
Series [2] has as its system Vero cells (Monkey Kidney Epithelial Cells).
Series [3] concerns canine herpes virus, CHV-1. Briefly: Antiviral checkerboard assay, Cf2Th cells infected with canine herpes virus CHV-1. The series is classed as cell-based. Here is the method:
This antiviral activity was evaluated using Cf2Th cells (canine thymocytes) infected with canine herpes virus, CHV-1.
Briefly, the Cf2Th cells were plated at a concentration of 5×10^5 cells/mL in 96-well multiwells (100 μL/well) and incubated at 37° C. in an atmosphere with 5% CO2.
Upon reaching about 90% confluence (48 h incubation), the medium was aspirated from each well, and replaced with 100 μL fresh medium containing a final virus concentration equal to 1×10^3 UFP/mL, and different concentrations of Lactoferricin and Grape Seed extract.
In particular, the different combinations between the two compounds had been previously prepared by crossing serial dilutions of the same, according to the protocol defined “broth microdilution checkerboard method”.
The cells were left in co-incubation with the virus and the compounds under examination for 48 h (37° C. -5% CO2).
At the end of the incubation, the wells characterized by a cell lysis given by the viral infection were discriminated from those in which the virus was inhibited by the compounds and therefore with viable cells. This evaluation was carried out both by direct observation under the microscope and by staining with methylene blue. […]
To determine the actual presence of synergy between the two compounds, the ratio below was calculated, defined as the FIC Index (FIC I). […]

Series [4] relates to SARS-CoV-2. Briefly: Virucide activity against SARS-CoV-2, plaque assay. The format is cell-based. Conditions: scheme B+C; for SARS-CoV-2 infectivity reduced by: plaque assay.

lactoferrin/lactoferricin [PREP 1]: the “Mean ΔCt” value in the series on SARS-CoV-2 [1] (1.02 mg/ml, scheme A (preincubation of virus with compound)) is given as 0.16; with SARS-CoV-2 [1] (1.02 mg/ml, scheme B+C (during and after inoculum)), −0.48; in the series with SARS-CoV-2 [1] (1.02 mg/ml, scheme B+C+D (during, after inoculum and repeated)), −0.59; with SARS-CoV-2 [1] (2.03 mg/ml, scheme A (preincubation of virus with compound)), 0.36; in the series on SARS-CoV-2 [1] (2.03 mg/ml, scheme B+C (during and after inoculum)) it was −0.50; in the series with SARS-CoV-2 [1] (2.03 mg/ml, scheme B+C+D (during, after inoculum and repeated)), −1.11. In addition, the “Mean ΔCt” value is on record as 0.52 in the series with SARS-CoV-2 [1] (4.06 mg/ml, scheme A (preincubation of virus with compound)); −2.90 with SARS-CoV-2 [1] (4.06 mg/ml, scheme B+C (during and after inoculum)); −3.64 in the series with SARS-CoV-2 [1] (4.06 mg/ml, scheme B+C+D (during, after inoculum and repeated)). In addition, in the series on SARS-CoV-2 [1] (high dose, added after the inoculum, one or twice), the “mean ΔCt over schemes C, B+C and B+C+D” value was −3.3. The CC10 in series [2] (Vero cells, 72 h, MTT) was >4.06* mg/ml. Also, in series [2] (Vero cells, 72 h, MTT), the CC50 is given as >4.06* mg/ml. Also, the “maximum nontoxic concentration (assumed)” value in series [2] (Vero cells, based on CC50/CC10 data) came to 4.06 mg/mL.

Regarding `CCN(CC)CCCC(C)Nc1ccnc2cc(Cl)ccc12` (centres unmarked) [Chloroquine, chloroquine, reference compound], the CC10 in series [2] (Vero cells, 72 h, MTT) is 20.93 ± 4.39 µM.

Regarding Lactoferricin, in series [3] (CHV-1, 48 h co-incubation), the “Minimum Antiviral Concentration Compound alone” value was 3.125%. The “Minimum Antiviral Concentration Compound in association” value in series [3] (in association with Grape Seed Extract, CHV-1, 48 h) is 0.781%.

As for polylysine [PREP 3], the “antiviral effect” value in the series on SARS-CoV-2 [1] was “No antiviral effect”; in the series with SARS-CoV-2 [1] (addition of a third dose (scheme B+C+D)), “slight effect”; in the series with SARS-CoV-2 [1] (schemes A, B and C) it was “no effect”. Also, in the series with SARS-CoV-2 [1], the “virus inhibition (antiviral and virucide activities)” value is listed as “more than 90%”. Further, in the series on SARS-CoV-2 [1], the “ΔCt, dose-dependent antiviral effect” value is −1.80 to −5.22. Also, in the series on SARS-CoV-2 [1] (scheme B+C), the “decrease in the viral replication” value is on record as “more than 1 log”. Moreover, the “maximum inhibition of the virus replication” value in the series with SARS-CoV-2 [1] (scheme B+C) was determined as 93%. Moreover, the CC10 in series [2] is more than 0.40 mg/mL. The “SARS-CoV-2 infectivity reduced by” value stood at 20% with SARS-CoV-2 [4] (0.05 mg/ml), 30.2% with SARS-CoV-2 [4] (0.1 mg/ml), 48.8% with SARS-CoV-2 [4] (0.20 mg/ml) and 96.3% in the series with SARS-CoV-2 [4] (0.40 mg/ml). Besides, the “percentage of virus replication compared to untreated infected cells” value was determined as 80% in the series with SARS-CoV-2 [4] (0.05 mg/ml), 69.8% with SARS-CoV-2 [4] (0.10 mg/ml), 51.2% in the series with SARS-CoV-2 [4] (0.20 mg/ml) and 3.7% with SARS-CoV-2 [4] (0.40 mg/ml).
